# Reference: US20030148483A1, “Method of removing residual enzymes in enzyme microencapsulation” (priority 2002, published 2003)
# Legend:
# uncapsulated lactase = test: Assay for the activity of uncapsulated lactase after ozone treatment (ONPG, absorbance at 420 nm); format: biochemical; conditions: initial activity 100%
# Experimental: After centrifuging the dispersion fluid of microcapsules prepared by ozone treatment in Examples 2 to 4 at 24,900×g for 10 min, the resulting supernatants were assayed for activity of uncapsulated lactase.
# A portion of each of the supernatants was primarily filtered using Whatman No. 540 (Whatman International Ltd., Maidstone, England), and then further filtered using an 1 μm membrane filter (Whatman International Ltd., Maidstone, England).
# Thereafter, 0.5 ml of the filtered supernatant was mixed with 2 ml of a solution of 0.05 M ONPG (Ortho-nitrophenol-β-D-galactopyranoside, Sigma Chemical Co., St. Louis, Mo. USA) preheated at 37° C. for 15 min, followed by incubation for 20 min at 37° C. After 20 min, the reaction was terminated with adding 0.5 ml of a 0.5 M Na2CO3 solution (Shinoyo Pure Chemical Co., Ltd., Osaka, Japan) thereto.
# Absorbance at 420 nm was measured using a spectrophotometer (Beckman Du 650 spectrophotometer; Beckman Instrument, Inc, Fullerton, Calif., USA), and the results are given in FIG. 2.
# Enterobacter aerogenes = test: Effect of ozone treatment on growth of microorganisms (colony count); format: cell-based; conditions: ozone 10 ppm, 2° C.; for viability: 0 min = 100
# Experimental: (§1) Microorganisms were treated with ozone of 10 ppm, at which concentration much of untrapped lactase loses its activity, while microencapsulated lactase retains effective activity, and effect of ozone on the growth of microorganisms was investigated.
# (§2) Pathogenic microorganisms found especially in food, including Escherichia coli, Bacillus subtilis, Staphylococcus aureus, Salmonella typhimurium, Pseudomonas aeruginosa, and Enterobacter aerogenes, were obtained from Korean Culture Center of Microorganisms (Seoul, Korea) and stored in broth containing 50% glycerol at −70° C. until use. The five strains, except S. aureus, were cultured in nutrient broth (NB), and S. aureus was cultured in tryptic soy broth (TSB) for 24 hours at 37° C.
# (§3) Trace amounts of the cultured microorganisms were mixed with the dispersion fluid of microcapsules, followed by treatment of ozone of 10 ppm at 2° C. under a flow rate of 10 L/min using an ozone generator.
# (§4) After being serially diluted, the ozone-treated microorganisms were plated onto nutrient agar broth.
# Escherichia coli = test: as above; format: cell-based; conditions: ozone 10 ppm, 2° C.; for viability: 0 min = 100
# Experimental: as §1, §2, §3, §4
# Salmonella typhimurium = test: as above; format: cell-based; conditions: ozone 10 ppm, 2° C.; for viability: 0 min = 100
# Experimental: as §1, §2, §3, §4
# Staphylococcus aureus = test: as above; format: cell-based; conditions: ozone 10 ppm, 2° C.; for viability: 0 min = 100
# Experimental: as §1, §2, §3, §4
# Pseudomonas aeruginosa = test: as above; format: cell-based; conditions: ozone 10 ppm, 2° C.; for viability: 0 min = 100
# Experimental: as §1, §2, §3, §4
# Bacillus subtilis = test: as above; format: cell-based; conditions: ozone 10 ppm, 2° C.; for viability: 0 min = 100
# Experimental: as §1, §2, §3, §4
# [1] = system: microencapsulated lactase; test: Effect of ozone treatment on the activity of microencapsulated lactase (heating method, ONPG); format: biochemical; conditions: initial activity 100%
# Experimental: With an aim to investigate effect of ozone treatment on microencapsulated lactase, microcapsules containing lactase were collected from the ozone-treated dispersion fluid prepared in Examples 2 to 4 by centrifugation, and the activity of microencapsulated lactase was measured using a heating method among yield analysis methods disclosed in Korean Pat. No. 88465.
# 0.5 ml of the resulting dispersion fluid containing microcapsules was mixed with 2 ml of 0.05 M ONPG pre-heated at 50° C. for 10 min. After 5 min, the reaction was terminated with adding 0.5 ml of 0.5M Na2CO3 thereto, and absorbance at 420 nm was measured using a spectrophotometer (Beckman Du 650 spectrophotometer, Beckman Instrument, Inc., Fullerton, Calif., USA). The results are given in FIG. 3, where the initial activity of lactase is 100%.
# Yield of microcapsule=1−Activity of uncapsulated lactase/ Initial activity of lactase×100
smiles,measurement,setting,value
O=[O+][O-] [ozone],activity of lactase (uncapsulated),"uncapsulated lactase; 1 ppm of ozone, 1 min",about 94.3%
same,activity of lactase (uncapsulated),"uncapsulated lactase; 1 ppm of ozone, 5 min",56.4%
same,activity of lactase (uncapsulated),"uncapsulated lactase; 1 ppm of ozone, 10 min",26.5%
same,activity of lactase (uncapsulated),"uncapsulated lactase; 5 ppm of ozone, 1 min",82%
same,activity of lactase (uncapsulated),"uncapsulated lactase; 5 ppm of ozone, 5 min",42.8%
same,activity of lactase (uncapsulated),"uncapsulated lactase; 5 ppm of ozone, 10 min",20%
same,activity of lactase (uncapsulated),"uncapsulated lactase; 10 ppm of ozone, 1 min",57.8%
same,activity of lactase (uncapsulated),"uncapsulated lactase; 10 ppm of ozone, 5 min",32.8%
same,activity of lactase (uncapsulated),"uncapsulated lactase; 10 ppm of ozone, 10 min",9.7%
same,colonies counted,Enterobacter aerogenes; treatment time 0.5 min,5.4 × 10^6 CFU/ml
same,viability,Enterobacter aerogenes; treatment time 0.5 min,38%
same,colonies counted,Enterobacter aerogenes; treatment time 1 min,1.0 × 10^6 CFU/ml
same,viability,Enterobacter aerogenes; treatment time 1 min,(7.1) %
same,colonies counted,Enterobacter aerogenes; treatment time 5 min,2.4 × 10^5 CFU/ml
same,viability,Enterobacter aerogenes; treatment time 5 min,(1.7) %
same,colonies counted,Enterobacter aerogenes; treatment time 10 min,0 CFU/ml
same,viability,Enterobacter aerogenes; treatment time 10 min,(0) %
same,colonies counted,Escherichia coli; treatment time 0.5 min,8.9 × 10^7 CFU/ml
same,viability,Escherichia coli; treatment time 0.5 min,3.7%
same,colonies counted,Escherichia coli; treatment time 1 min,3.1 × 10^7 CFU/ml
same,viability,Escherichia coli; treatment time 1 min,(1.3) %
same,colonies counted,Escherichia coli; treatment time 5 min,9.0 × 10^6 CFU/ml
same,viability,Escherichia coli; treatment time 5 min,(0.3) %
same,colonies counted,Escherichia coli; treatment time 10 min,0 CFU/ml
same,viability,Escherichia coli; treatment time 10 min,(0) %
same,colonies counted,Salmonella typhimurium; treatment time 0.5 min,8.4 × 10^8 CFU/ml
same,viability,Salmonella typhimurium; treatment time 0.5 min,34%
same,colonies counted,Salmonella typhimurium; treatment time 1 min,1.1 × 10^7 CFU/ml
same,viability,Salmonella typhimurium; treatment time 1 min,0.4%
same,colonies counted,Salmonella typhimurium; treatment time 5 min,1.5 × 10^6 CFU/ml
same,viability,Salmonella typhimurium; treatment time 5 min,(0.06) %
same,colonies counted,Salmonella typhimurium; treatment time 10 min,0 CFU/ml
same,viability,Salmonella typhimurium; treatment time 10 min,(0) %
same,colonies counted,Staphylococcus aureus; treatment time 0.5 min,1.0 × 10^8 CFU/ml
same,viability,Staphylococcus aureus; treatment time 0.5 min,(15) %
same,colonies counted,Staphylococcus aureus; treatment time 1 min,6.4 × 10^7 CFU/ml
same,viability,Staphylococcus aureus; treatment time 1 min,(9.4) %
same,colonies counted,Staphylococcus aureus; treatment time 5 min,1.2 × 10^7 CFU/ml
same,viability,Staphylococcus aureus; treatment time 5 min,(1.8) %
same,colonies counted,Staphylococcus aureus; treatment time 10 min,1.1 × 10^5 CFU/ml
same,viability,Staphylococcus aureus; treatment time 10 min,(0.01) %
same,colonies counted,Pseudomonas aeruginosa; treatment time 0.5 min,1.2 × 10^8 CFU/ml
same,viability,Pseudomonas aeruginosa; treatment time 0.5 min,(35) %
same,colonies counted,Pseudomonas aeruginosa; treatment time 1 min,7.5 × 10^7 CFU/ml
same,viability,Pseudomonas aeruginosa; treatment time 1 min,22%
same,colonies counted,Pseudomonas aeruginosa; treatment time 5 min,3.6 × 10^6 CFU/ml
same,viability,Pseudomonas aeruginosa; treatment time 5 min,1%
same,colonies counted,Pseudomonas aeruginosa; treatment time 10 min,0 CFU/ml
same,viability,Pseudomonas aeruginosa; treatment time 10 min,(0) %
same,colonies counted,Bacillus subtilis; treatment time 0.5 min,9.6 × 10^7 CFU/ml
same,viability,Bacillus subtilis; treatment time 0.5 min,60%
same,colonies counted,Bacillus subtilis; treatment time 1 min,2.2 × 10^7 CFU/ml
same,viability,Bacillus subtilis; treatment time 1 min,(14) %
same,colonies counted,Bacillus subtilis; treatment time 5 min,6.0 × 10^6 CFU/ml
same,viability,Bacillus subtilis; treatment time 5 min,(3.7) %
same,colonies counted,Bacillus subtilis; treatment time 10 min,0 CFU/ml
same,viability,Bacillus subtilis; treatment time 10 min,(0) %
same,activity of lactase entrapped into microcapsules,"[1]; 1 ppm of ozone, 1 min",about 97%
same,activity of lactase entrapped into microcapsules,"[1]; 1 ppm of ozone, 5 min",91%
same,activity of lactase entrapped into microcapsules,"[1]; 1 ppm of ozone, 10 min",74%
same,activity of lactase entrapped into microcapsules,"[1]; 5 ppm of ozone, 1 min",96%
same,activity of lactase entrapped into microcapsules,"[1]; 5 ppm of ozone, 5 min",82%
same,activity of lactase entrapped into microcapsules,"[1]; 5 ppm of ozone, 10 min",67%
same,activity of lactase entrapped into microcapsules,"[1]; 10 ppm of ozone, 1 min",93%
same,activity of lactase entrapped into microcapsules,"[1]; 10 ppm of ozone, 5 min",79%
same,activity of lactase entrapped into microcapsules,"[1]; 10 ppm of ozone, 10 min",65%
